# Patent US20250230193A1, “CYCLIC COMPOUND HAVING SELECTIVE KRAS INHIBITORY EFFECT ON HRAS AND NRAS” (CHUGAI SEIYAKU KABUSHIKI KAISHA, priority 2022, published 2025)
# Where a SMILES comes first, the peptide text is derived from it. Bridges are numbered along the chain shown (N, C = ends). [ ]: non-standard residue; d: D form. The star is where a group is joined. hPhe(3-Cl-4-CF3) = N[C@@H](CCc1ccc(C(F)(F)F)c(Cl)c1)C(=O)O; NPrPhe(4-CF3) = CCCN[C@@H](Cc1ccc(C(F)(F)F)cc1)C(=O)O; NMePhe(4-Me) = CN[C@@H](Cc1ccc(C)cc1)C(=O)O; NMeGly(cPent) = CN[C@H](C(=O)O)C1CCCC1; Pro(4,4-F2) = O=C(O)[C@@H]1CC(F)(F)CN1; Hyp = O=C(O)[C@@H]1C[C@@H](O)CN1; NMeD = CN[C@@H](CC(=O)O)C(=O)O; NMeL = CN[C@@H](CC(C)C)C(=O)O; Morpholide = C1CN(*)CCO1; Ac5c = NC1(C(=O)O)CCCC1; Ac4c = NC1(C(=O)O)CCC1; NPrGly = CCCNCC(=O)O; Sar = CNCC(=O)O
# Tests used:
# [1] = biological target: GDP-bound NRAS wild-type protein (Homo sapiens, UniProt P01111); assay: Binding to NRAS by surface plasmon resonance (SPR), Single Cycle Kinetics; conditions: for NRAS/KRAS (ratio of KD for GDP-bound NRAS wild-type to KD for KRAS) / NRAS/KRAS (ratio of KD value with respect to NRAS to KD value with respect to KRAS): SPR; for NRAS/KRAS (ratio of KD value with respect to NRAS to KD value with respect to KRAS): GDP-bound NRAS wild-type vs GDP-bound KRAS wild-type
# [2] = biological target: GDP-bound HRAS wild-type protein (Homo sapiens, UniProt P01112); assay: Binding to HRAS by surface plasmon resonance (SPR), Single Cycle Kinetics; conditions: for HRAS/KRAS (ratio of KD for GDP-bound HRAS wild-type to KD for KRAS) / HRAS/KRAS (ratio of KD value with respect to HRAS to KD value with respect to KRAS): SPR; for HRAS/KRAS (ratio of KD value with respect to HRAS to KD value with respect to KRAS): GDP-bound HRAS wild-type vs GDP-bound KRAS wild-type
# GDP-bound HRAS wild-type protein, sequence (P01112 whole entry): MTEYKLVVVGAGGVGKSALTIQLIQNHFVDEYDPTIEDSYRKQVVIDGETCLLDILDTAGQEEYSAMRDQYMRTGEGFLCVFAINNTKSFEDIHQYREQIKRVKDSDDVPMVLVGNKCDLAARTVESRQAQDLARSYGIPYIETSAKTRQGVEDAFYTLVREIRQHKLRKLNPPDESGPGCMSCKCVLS
# GDP-bound NRAS wild-type protein, sequence (P01111 whole entry): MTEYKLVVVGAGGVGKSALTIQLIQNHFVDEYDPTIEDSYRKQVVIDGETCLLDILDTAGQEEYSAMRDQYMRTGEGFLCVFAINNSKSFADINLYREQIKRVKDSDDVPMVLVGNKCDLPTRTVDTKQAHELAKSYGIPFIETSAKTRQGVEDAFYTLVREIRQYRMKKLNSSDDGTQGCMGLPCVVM
smiles,measurement,setting,value
CCCN1CC(=O)N(C)[C@@H](Cc2ccc(C)cc2)C(=O)N(C)CC(=O)N[C@@H](CCc2ccc(C(F)(F)F)c(Cl)c2)C(=O)N2CCC[C@H]2C(=O)NC2(CCCC2)C(=O)N(C)[C@@H](C2CCCC2)C(=O)N(C)[C@H](C(=O)N2CCOCC2)CC(=O)N(C)[C@@H](CC(C)C)C(=O)N[C@@H]([C@@H](C)CC)C(=O)N(C)CC1=O [PP0020] ([NMeL]I[Sar][NPrGly][NMePhe(4-Me)][Sar][hPhe(3-Cl-4-CF3)]P[Ac5c][NMeGly(cPent)][NMeD]-Morpholide; lactam N-11),NRAS/KRAS (ratio of KD for GDP-bound NRAS wild-type to KD for KRAS),[1]; KD ratio NRAS/KRAS,C (A compound having a KD ratio of 0.1 or more and less than 3 is denoted as C)
same,HRAS/KRAS (ratio of KD for GDP-bound HRAS wild-type to KD for KRAS),[2]; KD ratio HRAS/KRAS,C (A compound having a KD ratio of 0.1 or more and less than 3 is denoted as C)
CCC[C@H]1C(=O)N[C@@H]([C@@H](C)CC)C(=O)N(C)CC(=O)N(C)[C@H]2C/C=C\CCN(C2=O)[C@@H](Cc2ccc(C)cc2)C(=O)N(C)CC(=O)N[C@@H](CCc2ccc(Cl)c(Cl)c2)C(=O)N2CCCCC[C@H]2C(=O)NC2(CC(C)(C)C2)C(=O)N(C)[C@@H](C(CC)CC)C(=O)N(C)[C@H](C(=O)N(C)C)CC(=O)N1C [PP2962],NRAS/KRAS (ratio of KD value with respect to GDP-bound NRAS wild-type protein to KD value with respect to KRAS),"[1]; KD ratio NRAS/KRAS, class symbols",AA (a compound having 20 or more is denoted as AA)
same,HRAS/KRAS (ratio of KD value with respect to GDP-bound HRAS wild-type protein to KD value with respect to KRAS),"[2]; KD ratio HRAS/KRAS, class symbols",A (a compound having 10 or more and less than 20 is denoted as A)
"CCCN1C(=O)CN(C)C(=O)CN(C)C(=O)[C@H]([C@@H](C)CC)NC(=O)[C@H](CC(C)C)N(C)C(=O)C[C@@H](C(=O)N(C)C)NC(=O)[C@H](C2CCCC2)N(C)C(=O)C2(CCC2)NC(=O)[C@@H]2CC(F)(F)CN2C(=O)[C@H](CCc2ccc(C(F)(F)F)c(Cl)c2)NC(=O)CN(C)C(=O)[C@@H]1Cc1ccc(C(F)(F)F)cc1 [PP0358] ([NMeL]I[Sar][Sar][NPrPhe(4-CF3)][Sar][hPhe(3-Cl-4-CF3)][Pro(4,4-F2)][Ac4c][NMeGly(cPent)]D-NMe2; lactam N-11)",NRAS/KRAS (ratio of KD for GDP-bound NRAS wild-type to KD for KRAS),[1]; KD ratio NRAS/KRAS,B (a compound having 3 or more and less than 10 is denoted as B)
same,HRAS/KRAS (ratio of KD for GDP-bound HRAS wild-type to KD for KRAS),[2]; KD ratio HRAS/KRAS,C (A compound having a KD ratio of 0.1 or more and less than 3 is denoted as C)
CCC[C@H]1C(=O)N[C@@H]([C@@H](C)CC)C(=O)N(C2CC2)CC(=O)N(C)[C@H]2C/C=C\CCN(C2=O)[C@@H](Cc2ccc(C)cc2)C(=O)N(C)CC(=O)N[C@@H](CCc2ccc(C(F)(F)F)c(OC)c2)C(=O)N2C[C@H](OCC)C[C@H]2C(=O)N(C)C2(CCC2)C(=O)N(C)[C@@H](C(CC)CC)C(=O)N(C)[C@H](C(=O)N(C)C)CC(=O)N1C [PP2325],NRAS/KRAS (ratio of KD value with respect to NRAS to KD value with respect to KRAS),[1],A (a compound having 10 or more and less than 20 is denoted as A)
same,HRAS/KRAS (ratio of KD value with respect to HRAS to KD value with respect to KRAS),[2],A (a compound having 10 or more and less than 20 is denoted as A)
CCCN1C(=O)CN(C)C(=O)CN(C)C(=O)[C@H]([C@@H](C)CC)NC(=O)[C@H](CC(C)C)N(C)C(=O)C[C@@H](C(=O)N(C)C)NC(=O)[C@H](C2CCCC2)N(C)C(=O)C2(CCC2)NC(=O)[C@@H]2C[C@@H](OCC)CN2C(=O)[C@H](CCc2ccc(C(F)(F)F)c(Cl)c2)NC(=O)CN(C)C(=O)[C@@H]1Cc1ccc(C(F)(F)F)cc1 [PP0360] ([NMeL]I[Sar][Sar][NPrPhe(4-CF3)][Sar][hPhe(3-Cl-4-CF3)][Hyp](Et)[Ac4c][NMeGly(cPent)]D-NMe2; lactam N-11),NRAS/KRAS (ratio of KD for GDP-bound NRAS wild-type to KD for KRAS),[1]; KD ratio NRAS/KRAS,B (a compound having 3 or more and less than 10 is denoted as B)
same,HRAS/KRAS (ratio of KD for GDP-bound HRAS wild-type to KD for KRAS),[2]; KD ratio HRAS/KRAS,C (A compound having a KD ratio of 0.1 or more and less than 3 is denoted as C)
CCCO[C@H](C)[C@@H]1NC(=O)[C@H](CC(C)C)N(C)C(=O)C[C@@H](C(=O)N(C)C)N(C)C(=O)[C@H](C2CCCC2)N(C)C(=O)C2(CC(C)(C)C2)NC(=O)[C@@H]2C[C@H](C)CN2C(=O)[C@H](CCc2ccc(C(F)(F)F)c(OC)c2)NC(=O)CN(C)C(=O)[C@H](Cc2ccc(C)cc2)N2CC/C=C\C[C@@H](C2=O)N(C)C(=O)CN(C)C1=O [PP2415],NRAS/KRAS (ratio of KD value with respect to NRAS to KD value with respect to KRAS),[1],AA (a compound having 20 or more is denoted as AA)
same,HRAS/KRAS (ratio of KD value with respect to HRAS to KD value with respect to KRAS),[2],A (a compound having 10 or more and less than 20 is denoted as A)
CC[C@H](C)[C@@H]1NC(=O)[C@H](CC(C)C)N(C)C(=O)C[C@@H](C(=O)N2C[C@@H](C)O[C@@H](C)C2)N(C)C(=O)[C@H](C2CCCC2)N(C)C(=O)C2(CCCC2)NC(=O)[C@@H]2CCCN2C(=O)[C@H](CCc2ccc(C(F)(F)F)c(Cl)c2)NC(=O)CN(C)C(=O)[C@H](Cc2ccc(F)cc2)N2CCCCC[C@@H](C2=O)N(C)C(=O)CN(C)C1=O [PP1151],NRAS/KRAS (ratio of KD value with respect to NRAS to KD value with respect to KRAS),[1]; KD ratio,B (a compound having 3 or more and less than 10 is denoted as B)
same,HRAS/KRAS (ratio of KD value with respect to HRAS to KD value with respect to KRAS),[2]; KD ratio,B (a compound having 3 or more and less than 10 is denoted as B)
